Test results: PubChem BioAssay (NCI)
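Following 48 hours of exposure in 96-well plates, responses at five concentrations were used to interpolate endpoints linearly. TGI: concentration producing complete growth inhibition.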

Experiments:
Experiment in all cases: growth of human tumour cells (NCI), 48 h
PC-3 prostate = test system: PC-3 prostate
A549 NSCLC = test system: A549 NSCLC
HCC-2998 colon = test system: HCC-2998 colon
NCI-H522 lung = test system: NCI-H522 lung
SW-620 colon = test system: SW-620 colon
EKVX NSCLC = test system: EKVX NSCLC
CCRF-CEM leukemia = test system: CCRF-CEM leukemia
RPMI-8226 leukemia = test system: RPMI-8226 leukemia
SF-268 CNS = test system: SF-268 CNS
UACC-257 melanoma = test system: UACC-257 melanoma
HT29 colon = test system: HT29 colon
SN12C renal = test system: SN12C renal
SR leukemia = test system: SR leukemia
SF-295 CNS = test system: SF-295 CNS
HOP-62 NSCLC = test system: HOP-62 NSCLC
MOLT-4 leukemia = test system: MOLT-4 leukemia
HL-60(TB) leukemia = test system: HL-60(TB) leukemia
SK-MEL-2 melanoma = test system: SK-MEL-2 melanoma
SNB-19 CNS = test system: SNB-19 CNS
MDA-MB-231 breast = test system: MDA-MB-231 breast
UACC-62 melanoma = test system: UACC-62 melanoma
OVCAR-5 ovarian = test system: OVCAR-5 ovarian
NCI-H460 lung = test system: NCI-H460 lung
A498 renal = test system: A498 renal
HCT-116 colon = test system: HCT-116 colon
SF-539 CNS = test system: SF-539 CNS
NCI-H226 lung = test system: NCI-H226 lung
SK-OV-3 ovarian = test system: SK-OV-3 ovarian
MDA-N = test system: MDA-N
OVCAR-4 ovarian = test system: OVCAR-4 ovarian
LOX IMVI melanoma = test system: LOX IMVI melanoma
ACHN renal = test system: ACHN renal
M14 melanoma = test system: M14 melanoma
SK-MEL-28 melanoma = test system: SK-MEL-28 melanoma
OVCAR-3 ovarian = test system: OVCAR-3 ovarian
TK-10 renal = test system: TK-10 renal
NCI/ADR-RES ovarian = test system: NCI/ADR-RES ovarian
KM12 colon = test system: KM12 colon
MALME-3M melanoma = test system: MALME-3M melanoma
U251 CNS = test system: U251 CNS
RXF 393 renal = test system: RXF 393 renal
MDA-MB-435 = test system: MDA-MB-435
SNB-75 CNS = test system: SNB-75 CNS
UO-31 renal = test system: UO-31 renal
IGROV1 ovarian = test system: IGROV1 ovarian
BT-549 breast = test system: BT-549 breast
OVCAR-8 ovarian = test system: OVCAR-8 ovarian
NCI-H23 lung = test system: NCI-H23 lung
CAKI-1 renal = test system: CAKI-1 renal
HS 578T breast = test system: HS 578T breast
786-0 renal = test system: 786-0 renal
HOP-92 NSCLC = test system: HOP-92 NSCLC
MCF7 breast = test system: MCF7 breast
DU-145 prostate = test system: DU-145 prostate
T-47D breast = test system: T-47D breast
K-562 leukemia = test system: K-562 leukemia
SK-MEL-5 melanoma = test system: SK-MEL-5 melanoma
HCT-15 colon = test system: HCT-15 colon

CC(C)=CCC[C@]1(C)C=Cc2c(O)c3c(c(CC=C(C)C)c2O1)O[C@]12C(=C[C@@H]4CC1C(C)(C)O[C@@]2(C/C=C(/C)C(=O)O)C4=O)C3=O
TGI (PC-3 prostate): 2.23 µM
TGI (A549 NSCLC): 3.71 µM
TGI (HCC-2998 colon): 2.81 µM
TGI (NCI-H522 lung): 2.32 µM
TGI (SW-620 colon): 2.89 µM
TGI (EKVX NSCLC): 4.39 µM
TGI (CCRF-CEM leukemia): 1.45 µM
TGI (RPMI-8226 leukemia): 1.61 µM
TGI (SF-268 CNS): 3.91 µM
TGI (UACC-257 melanoma): 6.8 µM
TGI (HT29 colon): 1.85 µM
TGI (SN12C renal): 4.69 µM
TGI (SR leukemia): 0.939 µM
TGI (SF-295 CNS): 10 µM
TGI (HOP-62 NSCLC): 3.11 µM
TGI (MOLT-4 leukemia): 1.8 µM
TGI (HL-60(TB) leukemia): 0.706 µM
TGI (SK-MEL-2 melanoma): 4.13 µM
TGI (SNB-19 CNS): 7.36 µM
TGI (MDA-MB-231 breast): 4.23 µM
TGI (UACC-62 melanoma): 4.57 µM
TGI (OVCAR-5 ovarian): 2.94 µM
TGI (NCI-H460 lung): 3.27 µM
TGI (A498 renal): 3.98 µM
TGI (HCT-116 colon): 1.5 µM
TGI (SF-539 CNS): 0.477 µM
TGI (NCI-H226 lung): 3.93 µM
TGI (SK-OV-3 ovarian): 8.54 µM
TGI (MDA-N): 4.59 µM
TGI (OVCAR-4 ovarian): 13.6 µM
TGI (LOX IMVI melanoma): 4.95 µM
TGI (ACHN renal): 1.37 µM
TGI (M14 melanoma): 3.19 µM
TGI (SK-MEL-28 melanoma): 3.26 µM
TGI (OVCAR-3 ovarian): 2.67 µM
TGI (TK-10 renal): 2.47 µM
TGI (NCI/ADR-RES ovarian): 6.96 µM
TGI (KM12 colon): 2.25 µM
TGI (MALME-3M melanoma): 3.76 µM
TGI (U251 CNS): 3.31 µM
TGI (RXF 393 renal): 2.34 µM
TGI (MDA-MB-435): 3.72 µM
TGI (SNB-75 CNS): 3.28 µM
TGI (UO-31 renal): 3.73 µM
TGI (IGROV1 ovarian): 2.81 µM
TGI (BT-549 breast): 7.03 µM
TGI (OVCAR-8 ovarian): 4.19 µM
TGI (NCI-H23 lung): 3.24 µM
TGI (CAKI-1 renal): 3.66 µM
TGI (HS 578T breast): 9.68 µM
TGI (786-0 renal): 2.4 µM
TGI (HOP-92 NSCLC): 9.16 µM
TGI (MCF7 breast): 1.42 µM

CC1=CC(=O)CC(C)(C)C1/C=C/C(C)=C/C=C/C(C)=C/C=C/C=C(C)/C=C/C=C(C)/C=C/C1C(C)=CC(=O)CC1(C)C (centres undefined)
TGI (PC-3 prostate): > 100 µM
TGI (DU-145 prostate): > 100 µM
TGI (HCC-2998 colon): > 100 µM
TGI (NCI-H522 lung): 52.1 µM
TGI (SW-620 colon): > 100 µM
TGI (EKVX NSCLC): > 100 µM
TGI (CCRF-CEM leukemia): > 100 µM
TGI (RPMI-8226 leukemia): > 100 µM
TGI (SF-268 CNS): > 100 µM
TGI (UACC-257 melanoma): > 100 µM
TGI (T-47D breast): > 100 µM
TGI (HT29 colon): > 100 µM
TGI (SR leukemia): > 100 µM
TGI (SF-295 CNS): > 100 µM
TGI (HOP-62 NSCLC): > 100 µM
TGI (MOLT-4 leukemia): > 100 µM
TGI (K-562 leukemia): > 100 µM
TGI (HL-60(TB) leukemia): > 100 µM
TGI (SK-MEL-2 melanoma): > 100 µM
TGI (MDA-MB-231 breast): > 100 µM
TGI (OVCAR-5 ovarian): > 100 µM
TGI (NCI-H460 lung): > 100 µM
TGI (A498 renal): > 100 µM
TGI (HCT-116 colon): 55.1 µM
TGI (SF-539 CNS): > 100 µM
TGI (NCI-H226 lung): > 100 µM
TGI (SK-OV-3 ovarian): > 100 µM
TGI (MDA-N): > 100 µM
TGI (OVCAR-4 ovarian): > 100 µM
TGI (LOX IMVI melanoma): 85.6 µM
TGI (ACHN renal): > 100 µM
TGI (M14 melanoma): > 100 µM
TGI (SK-MEL-28 melanoma): > 100 µM
TGI (OVCAR-3 ovarian): > 100 µM
TGI (TK-10 renal): > 100 µM
TGI (NCI/ADR-RES ovarian): > 100 µM
TGI (KM12 colon): > 100 µM
TGI (U251 CNS): > 100 µM
TGI (RXF 393 renal): > 100 µM
TGI (MDA-MB-435): 71.4 µM
TGI (UO-31 renal): > 100 µM
TGI (IGROV1 ovarian): > 100 µM
TGI (OVCAR-8 ovarian): 49 µM
TGI (NCI-H23 lung): > 100 µM
TGI (SK-MEL-5 melanoma): > 100 µM
TGI (CAKI-1 renal): > 100 µM
TGI (HS 578T breast): > 100 µM
TGI (786-0 renal): > 100 µM
TGI (HOP-92 NSCLC): 62.8 µM
TGI (MCF7 breast): > 100 µM
TGI (HCT-15 colon): 85 µM
